According to patent US9446037B2, “Methods for the treatment of parkinson's disease psychosis using pimavanserin” (ACADIA Pharmaceuticals Inc., priority 2012, dated 2016):

Columns and labels:
[1] = test system: Parkinson's disease psychosis (PDP) patients; experiment: Phase III six-week randomized double-blind placebo-controlled study in PDP patients; assay type: in vivo, human
Protocol: A six-week, multi-center, randomized, double-blind, placebo-controlled study was conducted in PDP patients. The purpose of the study was to evaluate the safety and efficacy of 40 mg pimavanserin compared to placebo in the treatment of PDP.
A total of 199 patients were enrolled in the study and randomized on a one-to-one basis to receive either 40 mg of pimavanserin or placebo once daily for six weeks, following a two-week screening period including brief psycho-social therapy. Patients also received stable doses of their existing anti-Parkinson's therapy throughout the study.
At the screening visit, a trained member of the site staff worked with the patient's caregiver to devise a structured plan of social interaction for the patient and caregiver to follow at home. This brief non-pharmacologic psychosocial counseling was intended to help the patient and caregiver to manage the symptoms and provide standard of care prior to the blinded investigational treatment phase. Following the screening visit, patients received two follow-up phone calls (˜3- and 7-days from the screening visit) to review the plan and evaluate progress. Only those patients who met entry criteria at baseline were randomized to receive 40 mg pimavanserin or matching placebo for the 6-week treatment period.
The maximum duration of the study for each subject was approximately 12 weeks. Pimavanserin was administered in tablet form, once daily by mouth in 40 mg doses (2 tablets of 20 mg). Placebo was administered with visibly matching tablets, using the same route and regimen. The safety of subjects was assessed by monitoring adverse events, physical examinations, vital signs, clinical laboratory tests (hematology, clinical chemistry, and urinalysis), and electrocardiograms.
Primary Clinical Endpoint: The combined score for the modified 9-item hallucinations and delusions domains of the Scale for the Assessment of Positive Symptoms (SAPS-PD).
Key Secondary Endpoint: Parts II-III of the Unified Parkinson's Disease Rating Scale (UPDRS), which measures motor function.
Other Secondary Endpoints: Changes in the Clinical Global Impression Scale (CGI) with emphasis on severity (CGI-S) and improvement (CGI-I) of psychosis.
Exploratory Endpoints: the Caregiver Burden Scale, and Scales for Outcomes in Parkinson's Disease-Sleep scale (SCOPA-Sleep).
Note: mixed model repeated measures (MMRM) method was applied in primary analysis of the intent-to-treat (ITT) population. The significance test was based on least-square mean change from baseline for each arm using a 2-sided […]=0.05.

[2] = test system: DOI ((±)-2,5-dimethoxy-4-iodoamphetamine, a serotonin agonist) induced head twitches; conditions: rat; oral doses of 3 and 10 mg/kg; cited from earlier work
[3] = test system: hyperactivity induced by the N-methyl-D-aspartate antagonist MK-801; conditions: mice; oral doses of 3 and 10 mg/kg; cited from earlier work
[4] = test system: gating deficit induced by DOI; conditions: rat; doses of 1 and 3 mg/kg SC; cited from earlier work
[5] = test system: learning of a simple auto-shaped response; conditions: mice; intraperitoneal doses up to 32 mg/kg; cited from earlier work

change in combined UPDRS II & III scores ([1]; 40 mg once daily oral, mean change from baseline to day 43): −1.40
motor function (UPDRS Parts II-III, non-inferiority versus placebo) ([1]; two-sided 95 percent CI of treatment difference, pre-specified margin of 5 points, day 43): did not worsen motor function
Compound: CC(C)COc1ccc(CNC(=O)N(Cc2ccc(F)cc2)C2CCN(C)CC2)cc1 [Pimavanserin, N-(1-methylpiperidin-4-yl)-N-(4-fluorophenylmethyl)-N′-(4-(2-methylpropyloxy)phenylmethyl)carbamide]
safety and tolerability in the trial ([1]; 40 mg once daily oral, 6 weeks): safe and well tolerated
SAPS-PD Mean Change at Day 43 ([1]; 40 mg once daily oral, 6 weeks, n = 95, ITT, MMRM least-square mean change from baseline, P-value 0.001 vs placebo): −5.79
serious adverse event: urinary tract infection (number of patients) ([1]; 40 mg once daily oral, 6 weeks, placebo 1): 3
adverse event incidence: falls ([1]; 40 mg once daily oral, 6 weeks, placebo 8.5%): 10.6%
adverse event incidence: urinary tract infection ([1]; 40 mg once daily oral, 6 weeks, placebo 11.7%): 13.5%
serious adverse event: psychotic disorder (number of patients) ([1]; 40 mg once daily oral, 6 weeks, placebo zero): 2
CGI-I scale (secondary efficacy measure) ([1]; 40 mg once daily oral, 6 weeks, versus placebo, p=0.001): highly significant improvement
Caregiver Burden Scale ([1]; 40 mg once daily oral, 6 weeks, versus placebo, p=0.002): highly significant improvement
daytime wakefulness on SCOPA-sleep scale ([1]; 40 mg once daily oral, 6 weeks, versus placebo, p=0.012): significant improvements
nighttime sleep on SCOPA-sleep scale ([1]; 40 mg once daily oral, 6 weeks, versus placebo, p=0.045): significant improvements
improvement in psychosis at day 43 on SAPS-PD ([1]; 40 mg once daily oral, day 43, blinded independent centralized raters): 5.79 point
treatment difference on SAPS-PD versus placebo ([1]; 40 mg once daily oral, day 43, p=0.001): 3.06 points
activity in DOI induced head twitches [2]: effective
attenuation of MK-801 induced hyperactivity [3]: effective
reversal of DOI induced sensory motor gating deficit [4]: potently reversed the gating deficit
disruption of learning of a simple auto-shaped response [5]: failed to disrupt learning
